{"source": "patent US20240382564A1", "about": "“Methods and Compositions for Treating Muscular Dystrophy and Memory Impairment” (Allysta Pharmaceuticals, Inc., priority 2023, published 2024)", "key": {"D2.mdx mice [1]": {"system": "D2.mdx mice", "assay": "Western blotting of electron transport chain complex subunits in muscle", "assay_type": "in vivo, mouse", "description": "D2.mdx mice were treated with ALY688 at two different dosages; high dose (HD; 15 mg/kg body weight/day) or low dose (LD; 3 mg/kg body weight/day) dissolved in saline. A separate group of mice were treated with saline alone (VEH, vehicle). Treatment was provided via subscapular subcutaneous injections from 7 days of age to 28-30 days. […] At 28-30 days of age, mice were anaesthetized with isoflurane vaporized in medical air (21% oxygen) at a 2 L/min flow rate. Due to tissue limitations in limb muscle, certain measures were performed separately in tibialis anterior and quadriceps across several phases of breeding. Following the treatment protocol, in situ quadriceps force assessments were then performed in one limb followed by removal of the quadriceps from the other limb for mitochondrial assessments, diaphragm for in vitro force assessments and finally other tissues for further processing as described below. Muscle and visceral organs weights were normalized to tibia length. Tissue collected from the first phase were utilized in force, histological, mitochondrial measures (respiration, mH2O2 and calcium retention capacity) and western analyses (diaphragm and quadriceps only). A second phase was then collected and utilized for cytokine profiling, qPCR analyses and additional westerns (TA only). Serum was collected from both phase 1 and 2 and utilized for serum CK analysis. All animals were utilized in in vivo functional assays (grip strength, cage hang time and voluntary wheel running).\nFrozen sections of quadriceps and diaphragm from each muscle (approximately 10-30 mg in size) were homogenized using a plastic microcentrifuge tube with tapered Teflon pestle in ice-cold lysis buffer containing (in mM) (20 Tris/HCl, 150 NaCl, 1 EDTA, 1 EGTA, 1% Triton X-100, 2.5 Na4O7P2, 1 Na3VO4, pH 7.0) supplemented with protease (Sigma) and phosphatase inhibitors (Roche). A 12% gel was used to separate electron transport chain proteins and all other proteins were separated on a 10% gel. Following, all gels were transferred onto 0.2μm low fluorescence PVDF membrane (Bio-Rad, Mississauga, Canada) and blocked with Li-COR Intercept Blocking Buffer (LI-COR, Lincoln NE, USA) for 1 hour. Membranes were then incubated with specific primary antibodies (listed below) overnight at 4° C. A commercially available monoclonal rodent OXPHOS Cocktail (ab110413; Abcam, Cambridge, UK, 1:250 dilution) including V-ATP5A (55 kDa), III-UQCRC2 (48 kDa), IV-MTCO1 (40 kDa), II-SDHB (30 kDa), and I-NDUFB8 (20 kDa) were used to detect electron transport chain proteins. […] Prior to detection, membranes were washed in TBS-T three times for 5 minutes and then imaged using infrared imaging (LI-COR CLx; LI-COR, Lincoln, NE, USA) and quantified by densitometry (ImageJ, http://imagej.nih.gov/ij/). […]"}, "D2.mdx mice [2]": {"system": "D2.mdx mice", "assay": "Hippocampal cytokine mRNA by quantitative PCR", "assay_type": "in vivo, mouse", "conditions": "15 mg/kg daily", "description": "Male D2.mdx mice originated from a colony maintained at York University (Toronto, Canada) and sourced from Jackson Laboratories (Stock Number 013141, Bar Harbor, United States). Mice were treated daily from days 7 to 28 of age with ALY688 at 15 mg/kg b.w. (D2.mdx-ALY688) or saline control (D2.mdx-VEH). This age was chosen given it captures an early stage of disease progression in cardiac and skeletal muscle. Mice were sacrificed 20-24 hr after the last dose. Breeding of wildtype mice was unsuccessful. […]\nTotal RNA was isolated from hippocampus using the Aurum Total RNA Mini Kit (Bio-Rad; Mississauga, ON, Canada) according to manufacturer's instructions, and reverse transcribed into cDNA by M-MLV reverse transcriptase and oligo (dT) primers (Qiagen). cDNA was then amplified in a CFX384 Touch Real-Time PCR Detection Systems (Bio-Rad) with a SYBR Green master mix and specific primers. Gene expression was normalized to a Rplp0 control and relative differences were determined using the ΔΔCt method (Livak, K. J., & Schmittgen, T. D. (2001). Analysis of relative gene expression data using real-time quantitative PCR and the 2(-Delta Delta C(T)) Method. Methods, 25 (4), 402-408. doi: 10.1006/meth.2001.1262), normalized to D2A expression. […]"}}, "note": "Where no end group is shown, it is not given here. [ ]: non-standard residue; d: D form. Nva = CCC[C@H](N)C(=O)O", "data": [{"substance": "[dN]IP[Nva]LY[dS]FA[dS]-NH2 [ALY688]", "values": [{"measurement": "complex IV content", "setting": "D2.mdx mice [1]; diaphragm, LD", "value": "−27.0", "unit": "% vs WT"}, {"measurement": "total sum of electron transport chain complexes", "setting": "D2.mdx mice [1]; diaphragm, disease state groups", "value": "−13.8 to −19.3", "unit": "% vs WT"}, {"measurement": "specific subunits of complex III and V", "setting": "D2.mdx mice [1]; quadriceps and diaphragm, disease state groups (VEH, LD, HD)", "value": "−14.7 to −31.5", "unit": "% vs WT"}, {"measurement": "total sum of electron transport chain complexes", "setting": "D2.mdx mice [1]; quadriceps, HD", "value": "−29.1", "unit": "% vs WT"}, {"measurement": "hippocampal mRNA of IL-6, TNF-α or IL-10", "setting": "D2.mdx mice [2]", "value": "No significant changes"}]}]}
